Data taken from US7074907B2, “Compound, process for producing the same and use thereof” (Nichirei Biosciences Inc., priority 2003, dated 2006).

Key:
[1] = Test for linoleic acid autooxidation inhibitory effect; format: biochemical; conditions: sample 0.01% (w/v) in ethanol, stored in darkness at 40° C., degree of oxidation after two weeks, FIGS. 1 and 2
Experimental: <Test for Linoleic Acid Autooxidation Inhibitory Effect> 2 ml of 2.5% (w/v) linoleic acid was mixed with 4 ml of a 0.05 M phosphate buffer (pH 7.0) to prepare a reaction liquid. The compound of the present invention was dissolved in 99.5% ethanol at a concentration of 0.01% (w/v) 2 ml of the resulting solution and 2 ml of distilled water were added to the reaction liquid to make the total volume to 10 ml, mixed, and placed in a brown threaded bottle to prepare a sample. A negative control was prepared by adding, to the reaction liquid, only 2 ml of 99.5% ethanol and 2 ml of distilled water, without adding anything else. […] The measurement was carried out by mixing 0.1 ml of a sample, 9.7 ml of 75% ethanol, and 0.1 ml of a 30% ammonium thiocyanate solution, adding 0.1 ml of 2×10^−2 M ferrous chloride (3.5% hydrochloric acid solution) thereto, and exactly 3 minutes later, measuring the absorbance at 500 nm. From the measured values, the difference in absorbance and the rate of autooxidation after two weeks were obtained. The same measurement was made with the blanks, and ΔAbsorbance=(Absorbance of Main Sample)−(Absorbance of Blank) was taken. The absorbance increases with oxidation of the sample, and after reaching the maximum, decreases with consumption of the sample to be oxidized. Thus earlier occurrence of the peak absorbance represents weaker antioxidative activity. […]

[2] = DPPH radical scavenging test; format: biochemical; conditions: concentration of the sample solution; acetate buffer pH 5.5, 30° C., 30 minutes, absorbance at 517 nm
Experimental: The antioxidative activity of the compound of not lower than 95% purity of the present invention prepared in Example 1 was evaluated using a stable radical, 1,1-diphenyl-2-picrylhydrazyl (DPPH).
To 1600 μl of 250 mM acetate buffer (pH=5.5), 1200 μl of ethanol and 400 μl of a sample (at an arbitrary concentration in ethanol) were mixed, and pre-incubated at 30° C. for 5 minutes. 800 μl of a 500 μM DPPH/ethanol solution was added, mixed, and left to stand at 30° C. for 30 minutes. Then the absorbance of the sample at 517 nm was measured.
A negative control was prepared by adding, instead of the sample solution, only ethanol to the reaction liquid without adding anything else. A positive control was prepared in the same way as for the present compound at the same concentration in ethanol, except that the present compound was replaced with α-tocopherol. From the measured absorbances, the radical scavenging ratio was calculated in accordance with the following formula. Scavenging ratio (%)=(1−[Absorbance of Sample]/[Absorbance of Control])×100
The scavenging ratios were measured with the sample concentration in the sample solution being changed stepwise, to determine the concentration of the sample solution at which the DPPH radical scavenging ratio was 50%. This concentration was taken as the 50% DPPH radical scavenged concentration. […]

SMILES	antioxidative activity (oxidation inhibitory effect on linoleic acid) [1]	50% DPPH radical scavenged concentration [2]
O=C(O)c1cc(O)c(O)c(O)c1 [gallic acid]	weaker oxidation inhibitory effect on linoleic acid	–
Cc1c(C)c2c(c(C)c1O)CC[C@@](C)(CCC[C@H](C)CCC[C@H](C)CCCC(C)C)O2 [α-tocopherol]	–	121.5 µg/mL
